Results on 1 compound are retold here after ChEMBL document CHEMBL1151412, “Constituents of Couepia paraensis” (1983).

≈ marks a conversion by molar mass, not a printed value.

The subject of this assay is KB. Kind of assay: Cytotoxicity against human KB cells. It counts as functional. The conditions noted are these: read-out: ED50 (the source's name).

As to `COc1c(OC)c(O)c2c(=O)cc(C)oc2c1C`, the EC50 was 60 µg/mL (≈ 240 µM).
